Data set [1] deals with Hartley white guinea pigs. Kind of data set: Guinea pig maximization test (skin sensitivity). The data set is classed as in vivo. The settings on record: challenge 5%, 0.5%, Draize criteria. How it is done:
A guinea pig maximization test was performed using ten Hartley white guinea pigs to examine the presence or absence of the skin sensitivity of ursolic acid phosphate to the guinea pigs. An emulsified product containing distilled water and Freund's complete adjuvant (FCA) in equal volumes, a test substance (dissolved in olive oil, 5%), and a mixture including a test substance and FCA in equal volumes were separately injected intracutaneously to five guinea pigs in two sites with 0.1 mL, respectively. The next day, the hair of the intracutaneous injection sites was shaved, and a mixture of 10% sodium lauryl sulfate/petrolatum was applied thereto. The day after that, 0.1 ml of 5% ursolic acid phosphate (dissolved in olive oil) was applied with a patch for 48 hours to the shaved sites to complete induction of sensitization. After completion of induction of sensitization, a 10-day rest period was provided. After completion of the period, the hair in back untreated sites was shaved. Then, each of 0.1 ml of 5%, 0.5%, and 0% ursolic acid phosphate (dissolved in olive oil) was applied with a patch for 24 hours to respective three sites to […]. Thirty minutes and 24 hours after patch removal, skin reactions were observed. […]

A short description of data set [2]: Comparison of solubilities (saturated concentration by HPLC). The class given is physicochemical. The note with it: for solubility thermodynamic at 16 h: thermodynamic from solid. Here is the method: The thus-obtained ursolic acid phosphate was compared to ursolic acid (control) on their solubilities. The mixture was stirred for 16 hours and was passed through a 0.45-μm filter. After that, concentration measurement was performed by HPLC.

Where two headings read alike, the source gives them in different places.

In the case of `C[C@H]1[C@H](C)CC[C@]2(C(=O)O)CC[C@]3(C)C(=CC[C@@H]4[C@@]5(C)CCC(OP(=O)(O)O)C(C)(C)[C@@H]5CC[C@]43C)[C@H]12` (stereo partly shown) [ursolic acid phosphate, Ursolic acid phosphate], in data set [1] (0% in olive oil, patch 24 hours), the “skin reactions, sample-administered group versus control group” value was “no differences”. Moreover, the sensitization to skin result in data set [1] (induction with 5% in olive oil, 0% patch 24 hours, observed 30 minutes and 24 hours after patch removal) is “not observed”. Also, in data set [2], the “solubility compared to that of ursolic acid” value is on record as “improved”. In addition, the Saturated concentration in data set [2] (16 h, pH 7) was determined as 31.1 µg/mL; in data set [2] (16 h, pH 9), 7.5 µg/mL. Also, the solubility thermodynamic at 16 h is 120 µg/mL in data set [2] (pH 9, aqueous buffer) and 20.1 µg/mL in data set [2] (water).
Take `C[C@H]1[C@H](C)CC[C@]2(C(=O)O)CC[C@]3(C)C(=CC[C@@H]4[C@@]5(C)CC[C@H](O)C(C)(C)[C@@H]5CC[C@]43C)[C@H]12` [ursolic acid, reference compound]: the Saturated concentration in data set [2] (Solvent 8% EtOH/0.1 M phosphate Buffer (pH7.0), stirred 16 hours, 0.45-μm filter, HPLC) is under 1 µg/mL; in data set [2] (Solvent 8% EtOH/0.1 M phosphate Buffer (pH9), stirred 16 hours, 0.45-μm filter, HPLC), under 1 µg/mL; in data set [2] (Solvent 8% EtOH/DW, stirred 16 hours, 0.45-μm filter, HPLC), under 1 µg/mL; in data set [2] (Solvent EtOH, stirred 16 hours, 0.45-μm filter, HPLC) it was under 1 µg/mL. In addition, the solubility thermodynamic at 16 h was under 1 µg/mL in data set [2] (pH 9, aqueous buffer, Solvent 0.1 M phosphate Buffer (pH9), stirred 16 hours, 0.45-μm filter, HPLC, read-out: Saturated concentration) and under 1 µg/mL in data set [2] (water, Solvent DW, stirred 16 hours, 0.45-μm filter, HPLC, read-out: Saturated concentration).
